Patent publication US20150374705A1, “Substances for treatment or relief of pain” (Shanghai Institues for Biological Sciences, priority 2012, published 2015)
Entries after “also recorded” stand apart in the source; their conditions may differ.

Legend:
[1] = system: pentetrazol induced epilepsy in rats; test: Pentetrazol induced epilepsy assay; assay type: in vivo; conditions: rat, subcutaneous 1, 3, 10 and 15 mg/kg, 100 mg/kg pentetrazol 0.5 hour later
Method: Pentetrazol induced epilepsy assays: firstly, C5 or 70% PGE400 was injected to rats, and then 100 mg/kg pentetrazol was subcutaneously injected to rats half an hour later. Pentetrazol was dissolved in saline water. Then the convulsive response of rats was observed. Fatholahi standard was adopted to score the convulsive response. Grade 0, no response; Grade 1, rhythmic mouth and face spasm; Grade 2, fluctuating wandering spasm of body; Grade 3, systemic myoclonus and warped hip; Grade 4, body turning to one side; Grade 5, renvers and systemic tetanic convulsion. It took 30 minutes for observation after administration. The highest grade and the latency time from pentetrazol injection to the induction of the highest grade were collected.

[2] = system: SNI model rats (neuropathic pain); test: Spared nerve injury (SNI) model, neuropathic pain, mechanical pain threshold; assay type: in vivo; conditions: rat
Method: Male SD rats (200-250 g) were used, 6 per group in the cage. All the animals were placed under 12 hours light/cycle (i.e. 12 hours light and 12 hours dark in each day), free to food and water. All the experiments were conducted under the condition that the observers were blind to pharmaceutical treatment.
Spared nerve injury model (SNI): 10% chloral hydrate was injected intraperitoneally to anesthetize rats. […] The muscle was longitudinally separated to expose the core of sciatic nerve and the branching below: tibial nerve, common peroneal nerve and sural nerve. The tibial nerve and common peroneal nerve were ligatured and cut and small sural nerve was retained, meanwhile preventing any injury. The muscle and skin were sutured layer by layer, and then antibiotics were injected intraperitoneally for antibacterial purpose. For detailed methods, please refer to Decosterd I and Woolf C J. Spared nerve injury: an animal model of persistent peripheral neuropathic pain. 2000 August; Pain 87(2):149-58.
Method for detecting mechanical hyperalgesia in rats: firstly CFA solution was injected in the thenar of rats. After 24 hours, mechanical hyperalgesia quantitative detection was adopted to measure the paw withdrawal of rats to normal and harmless mechanical stimulation. Evaluation was conducted according to reference (Chaplan S R et al., Quantitative assessment of tactile allodynia in the rat paw. J Neurosci Methods. 1994 July; 53(1):55-63). In this method, the von Frey fibers with different bending force (equivalent to the range of 1-50 g force) were used to apply harmless mechanical stimulation. The rats were placed in organic glass box with metal mesh plate, and the von Frey fibers were applied on the surface of leg thenar. The von Frey fibers were applied vertically to the surface of thenar to generate the force that will trigger slight resistance to the leg. 2-3 seconds were maintained for every leg thenar. If the leg withdrew suddenly, positive records were recorded. The threshold was the mean of the weight that caused 50% paw withdrawal response (5-6 paw withdrawal/10 stimulations) in overall 10 stimulations.
Compounds MRK 016, C2, C3, C4, C5, C6, C7, C8 or α5IA (A5I) were dissolved in 70% PGE400 (PGE400:water=70:30 in volume). For injection dose, MRK016 was 2 mg/kg body weight; A5I was 3 mg/kg body weight; C2, C3, C4, C5, C6, C7 and C8 were 3 mg/kg body weight.
MRK016-M3 was dissolved in 90% PGE400 (PGE400:water=90:10 in volume). The doses were 10 mg/kg, 3 mg/kg, 1 mg/kg and 0.3 mg/kg, respectively for oral administration.
The method for behavioral data statistics was unpaired t-test. *, p<0.05, represents significant difference.

[3] = system: CFA induced inflammatory pain model rats (heat pain); test: CFA induced inflammatory pain model, heat pain threshold; assay type: in vivo; conditions: rat, 1 hour after administration
[4] = system: CFA induced inflammatory pain model rats (mechanical pain); test: CFA induced inflammatory pain model, mechanical pain threshold; assay type: in vivo; conditions: rat, 1 hour after administration
[5] = human, Phase I; cited from earlier work
[6] = molecular target: T1, Human recombinant α5-GABAA receptor (Homo sapiens, UniProt P18507+P31644); test: Electrophysiological inverse agonist efficacy on GABA-induced current; assay type: cell-based; conditions: change of GABA-induced current; negative = inhibition
T1 construct: expressed in transfected cells; host or cells: 293 cell line
Method: (§1) Different subunits of GABAA receptor were expressed in cell lines, including human kidney epithelial cell line, 293 cell line or L(tk−) cell line. The cells were cultured in medium, and such cells were used as the cellular model for screening drugs to suppress pain. a subunit, β subunit and γ subunit are indispensable for one complete functional GABAA receptor.
(§2) (a) simultaneously expressing α5 subunit (for the protein sequence, see GenBank accession number NM_001165037.1), β3 subunit (for the protein sequence, see GenBank accession number NM_021912.4) and γ2 subunit (for the protein sequence, see GenBank accession number NM_198904.2) in 293 cell line, forming the GABAA receptor containing α5 subunit;
(§3) The inventors used electrophysiological methods to measure the inverse agonist efficacy of the substances to be measured, see the method described in literature (Ballard T M et al., RO4938581, a novel cognitive enhancer acting at GABAA alpha5 subunit-containing receptors. Psychopharmacology (Berl). 2009 January; 202 (1-3): 207-23). […] Many methods can be used by those skilled in the art to evaluate the binding capacity of the ligand of α5-GABAA receptor to the α5-GABAA receptor, including but not limiting to the method above.
(§4) Inverse agonist efficacy represents the inhibition percentage of the candidate substance on the current induced by GABA through α5-GABAA receptor=(the current intensity induced by GABA through α5-GABAA receptor with the existence of candidate substance−the current intensity induced by GABA through α5-GABAA receptor without the existence of candidate substance)/the current intensity induced by GABA through α5-GABAA receptor without the existence of candidate substance.

[7] = molecular target: T2, Human recombinant GABAA receptor containing α5 subunit (α5, β3, γ2) (Homo sapiens, UniProt P18507+P31644); test: Competitive radioligand binding ([3H]Ro-0151788) on membranes of 293 cells, Ki; conditions: human recombinant GABAA subtype containing α5; read-out: Affinity, nM (α5)
T2 construct: expressed in transfected cells; host or cells: 293 cell line
Method: as §1
(§5) In this example, the inventors established the following cellular models:
as §2
(§6) Each of the (a) to (d) above could form a GABAA receptor with complete function.
(§7) Then, the cellular membrane was extracted and the protein concentration was measured. The competitive binding of the substances to be measured and radiolabelled compounds (e.g. 1 nM [^3H]Ro-0151788) were detected respectively to calculate the Ki value of the substances to be measured, see the method described in literature (Ballard T M et al., RO4938581, a novel cognitive enhancer acting at GABAA alpha5 subunit-containing receptors. Psychopharmacology (Berl). 2009 January; 202(1-3): 207-23). If the binding inhibition constant Ki (nM) of α5-GABAA receptor with the candidate substances in experimental group is less than the Ki of the receptor containing other a subunit (α1 subunit, α2 subunit or α3 subunit), then the candidate substance is a potential drugs for preventing, relieving or treating pain. Many methods can be used by those skilled in the art to evaluate the binding capacity of the ligand of α5-GABAA receptor to the α5-GABAA receptor, including but not limiting to the method above.

[8] = molecular target: T3, Human recombinant GABAA receptor containing α3 subunit (Homo sapiens, UniProt P18507+P34903); test: Electrophysiological inverse agonist efficacy on GABA-induced current; assay type: cell-based; conditions: change of GABA-induced current; negative = inhibition
T3 construct: expressed in transfected cells; host or cells: 293 cell line
Method: as §1
(§8) (d) simultaneously expressing α3 subunit (for the protein sequence, see GenBank accession number NM_000808.3), β3 subunit and γ2 subunit in 293 cell line, forming the GABAA receptor containing α3 subunit;
as §3, §4

[9] = molecular target: T4, Human recombinant GABAA receptor containing α3 subunit (α3, β3, γ2) (Homo sapiens, UniProt P18507+P34903); test: Competitive radioligand binding ([3H]Ro-0151788) on membranes of 293 cells, Ki; conditions: human recombinant GABAA subtype containing α3; read-out: Affinity, nM (α3)
T4 construct: expressed in transfected cells; host or cells: 293 cell line
Method: as §1, §5, §8, §6, §7

[10] = molecular target: T5, Human recombinant GABAA receptor containing α1 subunit (α1, β3, γ2) (Homo sapiens, UniProt P14867+P18507); test: as above; conditions: human recombinant GABAA subtype containing α1; read-out: Affinity, nM (α1)
T5 construct: expressed in transfected cells; host or cells: 293 cell line
Method: as §1, §5
(§9) (b) simultaneously expressing α1 subunit (GenBank accession number: NM_001127648.1), β3 subunit and γ2 subunit in 293 cell line, forming the GABAA receptor containing α1 subunit; • (c) simultaneously expressing α2 subunit (for the protein sequence, see GenBank accession number NM_000813.2), β3 subunit and γ2 subunit in 293 cell line, forming the GABAA receptor containing α2 subunit;
as §6, §7

[11] = molecular target: T6, Human recombinant GABAA receptor containing α2 subunit (α2, β3, γ2) (Homo sapiens, UniProt P18507+P47869); test: as above; conditions: human recombinant GABAA subtype containing α2; read-out: Affinity, nM (α2)
T6 construct: expressed in transfected cells; host or cells: 293 cell line
Method: as §1, §5, §9, §6, §7

[12] = system: α5-GABAA receptor in central nervous system; conditions: in vivo, Jones et al. 2006; cited from earlier work
[13] = system: Human recombinant GABAA receptor containing α2 subunit; test: Electrophysiological inverse agonist efficacy on GABA-induced current; assay type: cell-based; conditions: change of GABA-induced current; negative = inhibition
Method: as §1, §9, §3, §4

[14] = molecular target: T7, Human recombinant GABAA receptor containing α1 subunit (Homo sapiens, UniProt P14867+P18507); test: as above; assay type: cell-based; conditions: change of GABA-induced current; negative = inhibition
T7 construct: expressed in transfected cells; host or cells: 293 cell line
Method: as §1, §9, §3, §4

[15] = molecular target: T1, Human recombinant α5-GABAA receptor; conditions: Jones et al. 2006; cited from earlier work

## OCc1cc(-c2nnc3c4ccccc4c(OCc4ccccn4)nn23)no1 [Compound C5, {3-[6-(Pyridin-2-ylmethoxy)-[1,2,4]triazolo[3,4-a]phthalazin-3-yl]-isoxazol-5-yl}-methanol]
[1]
  Effect on pentetrazol induced epilepsy (responsive grade and latency time): no effect
[2]; 3 mg/kg subcutaneous, 14 days after SNI, 1 hour after administration, 3 mg/kg
  Neuropathic pain (SNI model), analgesic effect: efficiently inhibit nociceptive response; also recorded: efficiently suppressed neuropathic pain
[2]; subcutaneous 1 mg/kg or 3 mg/kg, 14 days after SNI, 0.5-12 hours after administration
  Suppression of neuropathic pain at different time points: efficiently could inhibit nociceptive response; also recorded: efficiently suppressed neuropathic pain
[3]; 3 mg/kg injection, 3 days after CFA, 3 mg/kg
  CFA induced inflammatory pain model (heat pain), analgesic effect: efficiently inhibit nociceptive response; also recorded: efficiently suppressed heat pain or mechanical pain response
[4]; 3 mg/kg injection, 7 days after CFA, 3 mg/kg
  CFA induced inflammatory pain model (mechanical pan), analgesic effect: efficiently inhibit nociceptive response; also recorded: efficiently suppressed heat pain or mechanical pain response

## Cc1cc(-c2nncc3c(C(C)(C)C)c(OCc4ncnn4C)nn23)no1 [MRK016, 3-tert-butyl-7-(5-methylisoxazol-3-yl)-2-(1-methyl-1H-1,2,4-triazol-5-ylmethoxy)-pyrazolo[1,5-d]-[1,2,4]triazine]
[5]
  Side effects in Phase I clinical trial: front heaviness, headache and nausea and vomiting
[6]
  Inverse agonist efficacy, % (α5): −55%
[2]; subcutaneous injection 2 mg/kg, 7 days after SNI model, 1 hour after administration
  Suppression of neuropathic pain (mechanical pain threshold): efficiently suppressed neuropathic pain
[3]; 2 mg/kg intraperitoneal, 3 days after CFA model, 2 mg/kg
  Suppression of heat pain: efficiently suppressed heat pain; also recorded: efficiently suppress heat pain
[7]
  Ki: 1.36 nM
[8]
  Inverse agonist efficacy, % (α3): −9%
[9]
  Ki: 0.77 nM
[4]; 2 mg/kg intraperitoneal, 7 days after CFA model, 2 mg/kg
  Suppression of mechanical pain: efficiently suppressed mechanical pain; also recorded: efficiently suppress mechanical pain
[10]
  Ki: 0.83 nM
[11]
  Ki: 0.85 nM
[12]
  Binding to α5-GABAA receptor in brain / inhibition of (3H)Ro-15-1788 binding in center: can efficiently inhibit; also recorded: focused in the brain
[13]
  Inverse agonist efficacy, % (α2): 6%
[14]
  Inverse agonist efficacy, % (α1): −16%

## Cc1cc(-c2nncc3c(C(C)(C)CO)c(OCc4ncnn4C)nn23)no1 [MRK016-M2]
[6]
  Inverse agonist efficacy, % (α5): −40%
[15]
  Inverse agonist effect of α5-GABAA receptor: significant inverse agonist effect
[7]
  Ki: 9.4 nM
[8]
  Inverse agonist efficacy, % (α3): −32%
[9]
  Ki: 9.8 nM
[10]
  Ki: 26 nM
[12]
  Binding to α5-GABAA receptor in brain / inhibition of (3H)Ro-15-1788 binding in center: not capable of binding the α5-GABAA receptor in brain
[13]
  Inverse agonist efficacy, % (α2): −23%
[14]
  Inverse agonist efficacy, % (α1): −41%
